Measurements taken from patent US9359341B2, “Aldehyde derivative of substitute oxazolidinones” (WANBURY LTD., priority 2012, dated 2016).

Experiments:
[1] = Anticoagulant activity (PT, APTT) in human plasma; conditions: PT and APTT, 0.1 to 1.0 μg/mL
Procedure: The anticoagulant action of the test substance (compound formula-B) and rivaroxaban was determined in vitro using human plasma. The human plasma used for this experiment was separated from the blood collected in sodium citrate as anticoagulant. The prothrombin time (PT) was determined by using a commercial test kit (Neoplastin from Stagid) and APTT was determined using (Synthasil kit by IL). […] Coagulation was then started by addition of thromboplastin, and time when coagulation occurred was determined. The concentration of test substance which effected a doubling of prothrombin time was determined.

[2] = Intravenous and oral excretion profile in Wistar rats; format: in vivo
Procedure: On the day before administration of the substance, a catheter for obtaining blood is implanted in the jugular vein of the experimental animals (male Wistar rats, body weight 200-250 g) under Isoflurane. anesthesia.
Urine and faeces are taken collected from metabolic cages over the course of 144 h after administration of the substance. The administration volume is 10 ml/kg for oral and 1 ml/kg for IV in male Wistar rats. Intravenous administration is via a formulation of 2% N—N Dimethyl acetamide/ethanol 10%/PEG400 (30%)/water for IV injection (58%) and via Tween80/PEG400/sterile water in the case of oral administration. Urine and faeces collection is 0-4, 4-8, 8-24, 24-48, 48-72, 72-96, 96-120, 120-144 in the case of IV and for oral administration.
Urine and faeces was processed and IS containing Acetonitrile is added to a defined urine/faeces and precipitated. After centrifugation, compound formula (B) and, where appropriate, known cleavage products of the compound formula (B) in the supernatant are determined quantitatively using a suitable LC/MS-MS method.
The measured urine and faeces concentrations are used to calculate parameters of the test substance and of the active ingredient compound (A) liberated there from, such as AUC and Cmax.
Acetonitrile containing IS is added to the study samples, calibration samples and QCs, and the protein is precipitated using acetonitrile. Vortexed and centrifuged and the supernatant is injected by LC-MS/MS (API 4000, AB Sciex). Chromatographic separation is carried out on an Shimadzu UFLC. The injection volume is 10 μl. The separation column used is a Phenomenex Gemini NX 4.6×5μ. 100 mm, adjusted to a temperature of 30° C. A binary mobile phase gradient at 800.mu·l/min is used (A: 0.1% formic acid in water, B: acetonitrile: API 4000, ESI Agilent 1100 column: Gemini Nx 100 mm×4.6 mm 5.μ; column temperature: 30° C.; eluent A: 0.1% formic acid in water, eluent B: acetonitrile; gradient: 0-2.5 min 95% A, 5% B; 2.5-2.6 min 5% A, 95% B; 2.6-4.2 min 95% A, 5% B; flow rate: 0.8 ml/min; ESI. Q1:464.098, Q3:144.255 The temperature of the Turbo V ion source is 500° C. The following MS instrument parameters are used: curtain gas 20 units, ion spray voltage 5 kV, gas 1 50 units gas 2 50 units, CAD gas 6 units. The substances are quantified by peak heights or areas using extracted ion chromatograms of specific MRM experiments.

[3] = In vitro liver microsomal stability assay (mouse); format: in vitro ADME; conditions: mouse liver microsomes
Procedure: Liver microsomal stability assays are conducted at 1 mg per mL liver microsome protein with an NADPH in phosphate buffer (100 mM, pH 7.4). Test compounds (compound of formula B of the invention) are prepared as solutions in 20% methanol-water and added to the assay mixture (final assay concentration 1 μM) and incubated at 37° C. Aliquots (100.μ·L) are taken out at times 0, 15, and 30 minutes, and diluted with ice cold acetonitrile containing IS (200.mu·L) to stop the reactions. Samples are centrifuged at 10,000 RPM for 5 minutes to precipitate proteins. Supernatants are transferred to micro centrifuge tubes and stored at −20° C. for analysis of LC/MS/MS. The percent parent remaining of the test substance is calculated as Ratio of peak area at each time point to peak area ratio at zero min, multiplied by 100. The compound formula (B) is converted to Rivaroxaban in microsomal assay.

Compound: O=CN(C[C@H]1CN(c2ccc(N3CCOCC3=O)cc2)C(=O)O1)C(=O)c1ccc(Cl)s1 [Compound formula B, 5-chloro-N-formyl-N-({(5S)-2-oxo-3-[4-(3-oxomorpholin-4-yl)phenyl]-1,3-oxazolidin-5-yl}methyl)thiophene-2-carboxamide]
- anticoagulant activity [1]: significant anticoagulant activity
- Mean (ng/G) Faeces ([2]; IV 1 mg/Kg, rivaroxaban in faeces, 144 h): BLQ
- Mean (ng) Urine ([2]; IV 1 mg/Kg, rivaroxaban in urine, 120 h): BLQ
- amount of rivaroxaban present in faeces as compared to rivaroxaban alone ([2]; Wistar rats): lesser amount of rivaroxaban present in faeces
- detectability of test substance in urine and faeces ([2]; after i.v. administration, at the first measurement point): no longer detectable in urine and faeces
- Observation (metabolism; for Test Product: of the formed rivaroxaban) [3]: shown metabolism
- amount of test product detected ([3]; metabolised to rivaroxaban from zero min): min. Neglible
